Assay [1] concerns C8161 (human melanoma) cells. Briefly: In vivo experimental metastasis mouse model. Set-up: species or system Nude mice (BALB/c-nude). To be noted: 200µg/100µℓ PBS intravenously twice per week (total 7 times); 4 weeks; vs PBS. The protocol: In vivo therapeutic efficacy of A_intact peptide was evaluated using experimental metastasis mouse model. The in vivo experimental metastasis model was constructed as described below.
Nude mice (BALB/c-nude, 6 weeks old, female) were obtained from Charles River Japan (Japan). C8161 (human melanoma) cells (8 x 10^5 cells in 100 µℓ PBS per mouse) were injected into the tail vein. Two days later, mice were randomized into control and treatment groups (n=5 per group) . Modified A_intact peptide (200µg/100µℓ PBS) or A_intact-Fc fusion protein (100µg/100µℓ PBS) were intravenously injected into each mouse twice per week (total 7 times). As a negative control, PBS (100µℓ/mouse) was injected. All animals were killed at 4 weeks after injection of cancer cells. Lung and liver were excised and fixed in 10% formalin for 24 h. Metastatic foci on the surface of lung and liver were counted.

A further assay has as its system SW480sub cells. Briefly: Invasion assay (Matrigel-coated transwell, collagen type I chemoattractant) with peptide-treated SW480sub cells. The format is cell-based. To be noted: for invasion reduced compared to the vehicle control: peptide 50 µM. The protocol: SW480sub was subpopulation of SW480 having high in vitro invasion and in vivo metastasis ability. The effect of each peptide on colorectal cancer cell invasion was analyzed using the said SW480sub. SW480sub cells were mixed with each peptide, followed by pre-incubation for 30 minutes.
(§1) Particularly, the porous membrane of 24-well transwell plate (8 µm pore size; Costar, USA) was coated with 100 µℓ of matrigel (BD Biosciences, USA) diluted in serum free medium at the concentration of 250 µg/mℓ, which stood at room temperature for 1 hour for fixing. The lower part of the transwell plate was coated with 100 µℓ of collagen type I (Sigma) at the concentration of 20 µg/mℓ. The said collagen type I was used as a chemoattractant. 1×10^4 cells resuspended in serum free medium were distributed in the upper chamber of the said 24-well transwell plate, followed by culture at 37°C with 5% CO2 for 48 hours, during which the cells were induced to migrate from the upper chamber to the lower chamber. The non-migrated cells were eliminated from the surface of the upper chamber. […] The excessive crystal violet solution was washed off with distilled water. The selected area (×100) was photographed. The number of the cells migrated was counted from 5 different selected areas. Then, mean value and standard error were obtained.

A further assay relates to colorectal cancer cells. Briefly: Cellular survival rate of colorectal cancer cells measured by absorbance. The class given is cell-based. The conditions noted are these: as in Example <3-2>. As to the method: (§2) Particularly, 100 µℓ of poly-HEMA (Sigma) at the concentration of 12 mg/mℓ was loaded in 96-well plate, which stood in clean bench for 1 day, followed by drying. On the next day, the plate was coated with Poly-HEMA once again. Cells were distributed in the poly-HEMA coated plate by 100 µℓ/well (1×10^4 cells/well). At that time, serum-free medium was used. 6 days later, 10 µℓ of CCK-8 reagent (Dojindo cat. CK04-13) was added to each well, followed by reaction for 3 hours. Then, OD450 was measured.
In particular, a cellular survival rate was measured using absorbance in the same manner as in Example <3-2>.

Assay [2] concerns SW480 cells. Briefly: Invasion assay with peptide-treated SW480 cells. The class given is cell-based. The conditions noted are these: concentration not given. As to the method: as §1
SW480 colorectal cancer cells were treated with peptides originated from C12orf59, and effects of the peptids on invasion of the cells were analyzed.

Assay [3] relates to C8161 (human melanoma) cell line. Briefly: Invasion assay with C8161 cells (Matrigel-coated Transwell). The conditions noted are these: 24 h. The class given is cell-based. The protocol:
Specifically, C8161 (human melanoma) cell line was cultured in DMEM containing 10% FBS, penicillin-streptomycin, L-glutamine, sodium pyruvate and glucose. C8161 cells (1 x 10^4) in the presence of the peptide were plated in serum-free medium on 24-well Transwell inserts (8 µm pore size; Costar, USA) coated with 25 µg of […] (BD Biosciences, USA). The underside of the insert was coated with 100 µℓ of collagen type I (Sigma) at the concentration of 5 µg/mℓ. […] The number of cells that had invaded was counted in five representative fields per insert. Then, mean value and standard deviation were obtained.

For assay [4], the system named is SW480 cells. Briefly: Cell survivability under anchorage independent condition (poly-HEMA plate, CCK-8, OD450). The format is cell-based. To be noted: peptide 100 µg/mℓ, 6 days. As to the method: 6 days later, cell survivability was measured by colorimetric technique under the anchorage independent condition.
as §2

Residues, ends and D or L forms follow the SMILES beside them.

As to `CC(=O)N[C@@H](CCC(=O)O)C(=O)N[C@@H](CCC(=O)O)C(=O)N[C@@H](CC(N)=O)C(=O)N[C@@H](CS)C(=O)NCC(=O)N[C@@H](CC(N)=O)C(=O)N1CCC[C@H]1C(=O)N[C@@H](CCC(=O)O)C(=O)N[C@@H](Cc1c[nH]cn1)C(=O)N[C@@H](CS)C(=O)N[C@@H](CC(C)C)C(=O)N[C@H](C(=O)N[C@H](C(=O)N[C@@H](CC(=O)O)C(=O)N[C@@H](Cc1c[nH]c2ccccc12)C(=O)N[C@H](C(=O)N[C@@H](Cc1c[nH]cn1)C(N)=O)C(C)C)[C@@H](C)O)[C@@H](C)O` [Modified A_intact peptide] (Ac-EENCGNPEHCLTTDWVH-NH2), in assay [1], the “metastasis to the liver (metastatic nodules)” value is listed as “inhibited” and the “metastasis to the lung (metastatic nodules)” value is recorded as “inhibited”.
As to PCCISSCCLT [B_Cen], the “invasion reduced compared to the vehicle control” value with SW480sub cells was found to be 33%.
With PCCISSCCLTTDWVH [B_N-term], the “effect on the survival of colorectal cancer cells” value with colorectal cancer cells is reported as “inhibitory effects on the survival of colorectal cancer cells in a concentration-dependent manner”. Besides, the “invasion of cells reduced by” value in the assay on SW480 cells [2] was 55%.
In the case of SWRPQPCCISSCCLT [B_C-term1], the “invasion reduced compared to the vehicle control” value in the assay with SW480sub cells is on record as 73%. Also, the “effect on the survival of colorectal cancer cells” value in the assay with colorectal cancer cells is given as “inhibitory effects on the survival of colorectal cancer cells in a concentration-dependent manner”. For the same compound, the “invasion of cells reduced by” value in the assay on SW480 cells [2] is listed as 45%.
Take “SWRPQPCCISSCCLTTDWVH [B_intact, fragment of C12orf59 isoform 2 extracellular domain, 20 amino acids]”: in the assay on SW480sub cells (peptide 43 µM), the “invasion rate reduced compared to the control” value is 29%. In addition, the “colorectal cancer cell invasion reduced by” value in the assay with SW480sub cells (peptide 100 µg/mℓ, 48 hours) was found to be 90%. The results for the “C8161 invasion reduced by” value in assay [3] (30 µg/mℓ) and in assay [3] (100 µg/mℓ) were 48% and 70%, respectively. Moreover, the “cell survivability reduced by” value with SW480 cells [4] was determined as 90%. Also, the “invasion of cells reduced by” value in the assay on SW480 cells [2] stood at 47%.

Values taken from EP3069727B1, “PHARMACEUTICAL COMPOSITION FOR CANCER PREVENTION AND TREATMENT CONTAINING PEPTIDE ORIGINATED FROM C12ORF59 PROTEIN AS AN ACTIVE INGREDIENT” (Korea Research Institute of Bioscience and Biotechnology, priority 2015, dated 2018).
